In patent US20220177508A1, “C10-Cyclic Substituted 13-Membered Macrolides and Uses Thereof” (Zikani Therapeutics, Inc., priority 2018, published 2022) one finds MIC data, which are given here for ten compounds.

Converted amounts (≈) assume the structure as drawn.

Common to all, as to assay type: cell-based
For one test, the system named is S. aureus MP-12. Kind of test: Broth dilution MIC determination (CLSI), S. aureus MP-12. The following applies: Staphylococcus aureus, MP12; strain MP-12, broth dilution.
A further test concerns P. aeruginosa MP-3. Kind of test: Broth dilution MIC determination (CLSI), P. aeruginosa MP-3. As to conditions: Pseudomonas aeruginosa, MP3; strain MP-3, broth dilution.
For a further test, the system named is A. baumannii MP-15. Kind of test: Broth dilution MIC determination (CLSI), A. baumannii MP-15. As to conditions: Acinetobacter baumannii, MP15; strain MP-15, broth dilution; read-out: MIC A. baumanii MP-15.
The subject of the next test is E. coli MP-4. Kind of test: Broth dilution MIC determination (CLSI), E. coli MP-4. As to conditions: Escherichia coli, MP4; strain MP-4, broth dilution; read-out: MIC E. coli MP-4. For orientation: Broth dilution looks for growth in wells or tubes with falling amounts of substance.
A further test deals with K. pneumoniae MP-546. Kind of test: Broth dilution MIC determination (CLSI), K. pneumoniae MP-546. The following applies: Klebsiella pneumoniae, MP546; strain MP-546, broth dilution.

As usually defined, the MIC is the lowest concentration found to suppress growth.

`CO[C@]1(C)C[C@@H](C)CN(C)[C@@H]([C@H]2CCN(C(C)C)C2)COC(=O)C(C)(C)C(=O)[C@H](C)[C@H]1O[C@@H]1O[C@H](C)C[C@H](N(C)C)[C@H]1O` [Compound 57, (3S,6R,8R,9R,10R)-9-(((2S,3R,4S,6R)-4-(Dimethylamino)-3-hydroxy-6-methyltetrahydro-2H-pyran-2-yl)oxy)-3-((S)-1-isopropylpyrrolidin-3-yl)-8-methoxy-4,6,8,10,12,12-hexamethyl-1-oxa-4-azacyclotridecane-11,13-dione]: the MIC against S. aureus MP-12 was 4 to 32 µg/mL (≈ 6.54 to 52.3 µM); against P. aeruginosa MP-3, above 32 µg/mL; with A. baumannii MP-15, above 32 µg/mL; with E. coli MP-4 it was below 4 µg/mL; with K. pneumoniae MP-546 it was 4 to 32 µg/mL (≈ 6.54 to 52.3 µM).
Regarding `CO[C@]1(C)C[C@@H](C)CN(C)[C@H](C2CCN(CC(F)F)CC2)COC(=O)C(C)(C)C(=O)[C@H](C)[C@H]1O[C@@H]1O[C@H](C)C[C@H](N(C)C)[C@H]1O` [Compound 62, (3R,6R,8R,9R,10R)-3-(1-(2,2-difluoroethyl)piperidin-4-yl)-9-(((2S,3R,4S,6R)-4-(dimethylamino)-3-hydroxy-6-methyltetrahydro-2H-pyran-2-yl)oxy)-8-methoxy-4,6,8,10,12,12-hexamethyl-1-oxa-4-azacyclotridecane-11,13-dione], the MIC in the test on S. aureus MP-12 is 4 to 32 µg/mL (≈ 6.17 to 49.4 µM); in the test on P. aeruginosa MP-3 it was above 32 µg/mL; in the test on A. baumannii MP-15, above 32 µg/mL; in the test on E. coli MP-4, below 4 µg/mL; with K. pneumoniae MP-546 it was 4 to 32 µg/mL (≈ 6.17 to 49.4 µM).
Regarding `CCCN1CCC([C@H]2COC(=O)C(C)(C)C(=O)[C@H](C)[C@@H](O[C@@H]3O[C@H](C)C[C@H](N(C)C)[C@H]3O)[C@](C)(OC)C[C@@H](C)CN2C)CC1` [Compound 63, (3S,6R,8R,9R,10R)-9-(((2S,3R,4S,6R)-4-(dimethylamino)-3-hydroxy-6-methyltetrahydro-2H-pyran-2-yl)oxy)-8-methoxy-4,6,8,10,12,12-hexamethyl-3-(1-propylpiperidin-4-yl)-1-oxa-4-azacyclotridecane-11,13-dione], the MIC in the test with S. aureus MP-12 is 4 to 32 µg/mL (≈ 6.39 to 51.1 µM); against P. aeruginosa MP-3, above 32 µg/mL; with A. baumannii MP-15, above 32 µg/mL; in the test on E. coli MP-4, below 4 µg/mL; in the test with K. pneumoniae MP-546 it was below 4 µg/mL.
For `CO[C@]1(C)C[C@@H](C)CN(C)[C@@H](C2CCN(C)CC2)COC(=O)C(C)(C)C(=O)[C@H](C)[C@H]1O[C@@H]1O[C@H](C)C[C@H](N(C)C)[C@H]1O` [Compound 64, (3S,6R,8R,9R,10R)-9-(((2S,3R,4S,6R)-4-(dimethylamino)-3-hydroxy-6-methyltetrahydro-2H-pyran-2-yl)oxy)-8-methoxy-4,6,8,10,12,12-hexamethyl-3-(1-methylpiperidin-4-yl)-1-oxa-4-azacyclotridecane-11,13-dione], the MIC in the test with S. aureus MP-12 was 4 to 32 µg/mL (≈ 6.69 to 53.5 µM); against P. aeruginosa MP-3 it was above 32 µg/mL; in the test with A. baumannii MP-15, above 32 µg/mL; in the test with E. coli MP-4, below 4 µg/mL; in the test with K. pneumoniae MP-546, below 4 µg/mL.
As for `CO[C@]1(C)C[C@@H](C)CN(C)[C@H]([C@@H]2CCCN2)COC(=O)C(C)(C)C(=O)[C@H](C)[C@H]1O[C@@H]1O[C@H](C)C[C@H](N(C)C)[C@H]1O` [Compound 65, (3R,6R,8R,9R,10R)-9-(((2S,3R,4S,6R)-4-(dimethylamino)-3-hydroxy-6-methyltetrahydro-2H-pyran-2-yl)oxy)-8-methoxy-4,6,8,10,12,12-hexamethyl-3-((S)-pyrrolidin-2-yl)-1-oxa-4-azacyclotridecane-11,13-dione], the MIC with S. aureus MP-12 is above 32 µg/mL; with P. aeruginosa MP-3 it was above 32 µg/mL; with A. baumannii MP-15, above 32 µg/mL; in the test with E. coli MP-4 it was 4 to 32 µg/mL (≈ 7.02 to 56.2 µM); against K. pneumoniae MP-546, above 32 µg/mL.
As for `CO[C@]1(C)C[C@@H](C)CN(C)[C@H](C2CCN(C(=O)CNCC(C)C)CC2)COC(=O)C(C)(C)C(=O)[C@H](C)[C@H]1O[C@@H]1O[C@H](C)C[C@H](N(C)C)[C@H]1O` [Compound 66, (3R,6R,8R,9R,10R)-9-(((2S,3R,4S,6R)-4-(dimethylamino)-3-hydroxy-6-methyltetrahydro-2H-pyran-2-yl)oxy)-3-(1-(isobutylglycyl)piperidin-4-yl)-8-methoxy-4,6,8,10,12,12-hexamethyl-1-oxa-4-azacyclotridecane-11,13-dione], the MIC against S. aureus MP-12 was above 32 µg/mL; against P. aeruginosa MP-3, above 32 µg/mL; in the test on A. baumannii MP-15, above 32 µg/mL; in the test on E. coli MP-4 it was below 4 µg/mL; with K. pneumoniae MP-546, 4 to 32 µg/mL (≈ 5.74 to 45.9 µM).
For `CO[C@]1(C)C[C@@H](C)CN(C)[C@@H]([C@H]2CCN(C(=O)CN(C)C)C2)COC(=O)C(C)(C)C(=O)[C@H](C)[C@H]1O[C@@H]1O[C@H](C)C[C@H](N(C)C)[C@H]1O` [Compound 67, (3S,6R,8R,9R,10R)-9-(((2S,3R,4S,6R)-4-(dimethylamino)-3-hydroxy-6-methyltetrahydro-2H-pyran-2-yl)oxy)-3-((S)-1-(dimethylglycyl)pyrrolidin-3-yl)-8-methoxy-4,6,8,10,12,12-hexamethyl-1-oxa-4-azacyclotridecane-11,13-dione], the MIC is above 32 µg/mL in the test with S. aureus MP-12; above 32 µg/mL against P. aeruginosa MP-3; above 32 µg/mL in the test on A. baumannii MP-15; below 4 µg/mL in the test with E. coli MP-4; 4 to 32 µg/mL (≈ 6.11 to 48.9 µM) with K. pneumoniae MP-546.
Turning to `CCCN1C[C@H](C)C[C@@](C)(OC)[C@H](O[C@@H]2O[C@H](C)C[C@H](N(C)C)[C@H]2O)[C@@H](C)C(=O)C(C)(C)C(=O)OC[C@H]1C1CN(C(=O)CN(C)C)C1` [Compound 68, (3R,6R,8R,9R,10R)-9-(((2S,3R,4S,6R)-4-(dimethylamino)-3-hydroxy-6-methyltetrahydro-2H-pyran-2-yl)oxy)-3-(1-(dimethylglycyl)azetidin-3-yl)-8-methoxy-6,8,10,12,12-pentamethyl-4-propyl-1-oxa-4-azacyclotridecane-11,13-dione], the MIC in the test with S. aureus MP-12 is 4 to 32 µg/mL (≈ 5.98 to 47.8 µM); against P. aeruginosa MP-3 it was above 32 µg/mL; in the test with A. baumannii MP-15 it was above 32 µg/mL; in the test on E. coli MP-4, below 4 µg/mL; with K. pneumoniae MP-546, 4 to 32 µg/mL (≈ 5.98 to 47.8 µM).
Take `CCN1C[C@H](C)C[C@@](C)(OC)[C@H](O[C@@H]2O[C@H](C)C[C@H](N(C)C)[C@H]2O)[C@@H](C)C(=O)C(C)(C)C(=O)OC[C@H]1C1CN(CC(C)C)C1` [Compound 70, (3R,6R,8R,9R,10R)-9-(((2S,3R,4S,6R)-4-(dimethylamino)-3-hydroxy-6-methyltetrahydro-2H-pyran-2-yl)oxy)-4-ethyl-3-(1-isobutylazetidin-3-yl)-8-methoxy-6,8,10,12,12-pentamethyl-1-oxa-4-azacyclotridecane-11,13-dione]: the MIC is 4 to 32 µg/mL (≈ 6.39 to 51.1 µM) in the test on S. aureus MP-12; above 32 µg/mL against P. aeruginosa MP-3; above 32 µg/mL in the test with A. baumannii MP-15; below 4 µg/mL in the test on E. coli MP-4; 4 to 32 µg/mL (≈ 6.39 to 51.1 µM) in the test on K. pneumoniae MP-546.
As to `CO[C@]1(C)C[C@@H](C)CN(C)[C@H](C2CN(C3CCCCC3)C2)COC(=O)C(C)(C)C(=O)[C@H](C)[C@H]1O[C@@H]1O[C@H](C)C[C@H](N(C)C)[C@H]1O` [Compound 73, (3R,6R,8R,9R,10R)-3-(1-cyclohexylazetidin-3-yl)-9-(((2S,3R,4S,6R)-4-(dimethylamino)-3-hydroxy-6-methyltetrahydro-2H-pyran-2-yl)oxy)-8-methoxy-4,6,8,10,12,12-hexamethyl-1-oxa-4-azacyclotridecane-11,13-dione], the MIC was 4 to 32 µg/mL (≈ 6.27 to 50.2 µM) in the test on S. aureus MP-12; above 32 µg/mL with P. aeruginosa MP-3; 4 to 32 µg/mL (≈ 6.27 to 50.2 µM) in the test with A. baumannii MP-15; 4 to 32 µg/mL (≈ 6.27 to 50.2 µM) in the test with E. coli MP-4; below 4 µg/mL against K. pneumoniae MP-546.
